Measured values reported in article PMC10778626, “Efficacy of Novel Quaternary Ammonium and Phosphonium Salts Differing in Cation Type and Alkyl Chain Length against Antibiotic-Resistant Staphylococcus aureus” (International Journal of Molecular Sciences, 2023).
In brackets after ≈: the same amount, converted by molar mass.

Experiments:
HepG2 cells = test: Cytotoxicity by neutral red (NR) uptake; assay type: cell-based, human; details: HepG2, 24 h
Protocol: The evaluation of the cytotoxicity effects of QHSs was performed using hepatocellular carcinoma (HepG2) cells. […] The cells used for all experiments were taken between the 9th and 13th passages, to avoid phenotypic changes.
The cytotoxicity profile of the compounds under study was evaluated in HepG2 cells (2.5 × 10^5 cells/mL) seeded in 96-well plates. […] Control experiments were performed for viability endpoints by adding the vehicle (medium with 0.1% DMSO) instead of the compound solution.
In the NR uptake assay, following a 24 h incubation period with the test compounds, the cell culture medium was aspirated, and fresh medium containing 150 µL of the dye (at a concentration of […]) was added to the cells. […] After incubation, the cell culture medium was discarded, and a mixture of absolute ethanol and distilled water (1:1) containing 5% acetic acid was added to extract the dye accumulated within the lysosomes of viable cells. The absorbance at 540 nm was measured using a microplate reader (Synergy HTX Multi-Mode Reader—BioTek, Winooski, VT, USA).
For all assays, results are expressed as a percentage of the control (nontreated cells), taken as 100%.

S. aureus SA1199B = details: antibiotics, ref Abreu et al. [44]; cited from earlier work
S. aureus CECT 976 = test system: S. aureus CECT 976; design: method as in Abreu et al. [44]; details: antibiotics, broth microdilution, ref Abreu et al. [44]; cited from earlier work

Compound	NR uptake (lysosomal activity), % of control (HepG2 cells; 2 µg/mL)	NR uptake (lysosomal activity), % of control (HepG2 cells; 16 µg/mL)	NR uptake (lysosomal activity), % of control (HepG2 cells; 32 µg/mL)	MIC (S. aureus SA1199B) [µg/mL]	MIC (S. aureus CECT 976) [µg/mL]
O=C(O)c1cn(C2CC2)c2cc(N3CCNCC3)c(F)cc2c1=O [[CIP], ciprofloxacin, reference compound]	106.7 ± 11.16% (ns)	96.82 ± 5.237% (ns)	92.35 ± 6.807% (ns)	128 (≈ 386 µM)	1 (≈ 3.02 µM)
CC[C@H]1OC(=O)[C@H](C)[C@@H](O[C@H]2C[C@@](C)(OC)[C@@H](O)[C@H](C)O2)[C@H](C)[C@@H](O[C@@H]2O[C@H](C)C[C@H](N(C)C)[C@H]2O)[C@](C)(O)C[C@@H](C)C(=O)[C@H](C)[C@@H](O)[C@]1(C)O [[ERY], erythromycin, reference compound]	108.4 ± 4.998% (ns)	107.1 ± 7.642% (ns)	110.2 ± 9.546% (ns)		0.24 (≈ 0.327 µM)
CC1(C)S[C@@H]2[C@H](NC(=O)[C@H](N)c3ccccc3)C(=O)N2[C@H]1C(=O)O [[AMP], ampicillin]					1.5 (≈ 4.29 µM)
